According to patent publication US9409966B2, “Glucagon-like peptide-1 derivatives and their pharmaceutical use” (priority 2007, dated 2016):
*1 amine or outer side, *2 acyl side, *3 side chain or, on linkers, in order; H or OH if unused. Where a SMILES comes first, the peptide text is derived from it. Side-chain parts run from the residue outwards. [ ]: non-standard residue; d: D form. The star is where a group is joined. C20 diacid = O=C(O)CCCCCCCCCCCCCCCCCCC(=O)*; C18 diacid = O=C(O)CCCCCCCCCCCCCCCCC(=O)*; γGlu = O=C(O)[C@H](CCC(=O)[*:2])N[*:1]; Desaminohistidyl = O=C(CCc1c[nH]cn1)*; Trx = NC[C@H]1CC[C@H](C(=O)O)CC1; NTA = O=C(O)CN(CC(=O)O)CC(=O)*; Dap = NC[C@H](N)C(=O)O; AEEA = NCCOCCOCC(=O)O; Aib = CC(C)(N)C(=O)O

Target: T1, human GLP-1 receptor (Homo sapiens, UniProt P43220)
T1 construct: expressed in transfected cells; host or cells: BHK467-12A (tk-ts13) baby hamster kidney cells; purified plasma membranes
Test: Stimulation of cAMP formation in a cell line expressing the cloned human GLP-1 receptor
Assay type: biochemical
Details: cAMP production, purified plasma membranes from BHK467-12A (tk-ts13), AlphaScreen cAMP Assay Kit; read-out: Potency [EC50/nM]

T1 sequence (P43220 24-463): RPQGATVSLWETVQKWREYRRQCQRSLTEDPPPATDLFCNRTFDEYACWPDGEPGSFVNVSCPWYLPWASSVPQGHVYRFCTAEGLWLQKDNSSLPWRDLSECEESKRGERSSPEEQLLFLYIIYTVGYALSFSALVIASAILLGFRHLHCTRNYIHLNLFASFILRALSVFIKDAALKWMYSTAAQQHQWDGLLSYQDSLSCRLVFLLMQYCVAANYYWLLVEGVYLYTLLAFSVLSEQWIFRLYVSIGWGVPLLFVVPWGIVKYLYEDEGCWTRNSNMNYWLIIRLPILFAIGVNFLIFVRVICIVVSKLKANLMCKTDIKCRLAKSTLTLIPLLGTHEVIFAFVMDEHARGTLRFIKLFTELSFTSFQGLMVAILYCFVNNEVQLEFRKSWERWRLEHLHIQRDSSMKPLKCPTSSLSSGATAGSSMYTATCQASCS

First: CC[C@H](C)[C@H](NC(=O)[C@H](Cc1ccccc1)NC(=O)[C@H](CCC(=O)O)NC(=O)[C@H](CCCNC(=N)N)NC(=O)[C@H](C)NC(=O)[C@H](C)NC(=O)[C@H](CCC(N)=O)NC(=O)[C@H](CCC(=O)O)NC(=O)[C@H](CCC(=O)O)NC(=O)[C@H](CC(C)C)NC(=O)[C@H](Cc1ccc(O)cc1)NC(=O)[C@H](CO)NC(=O)[C@H](CO)NC(=O)[C@@H](NC(=O)[C@H](CC(=O)O)NC(=O)[C@H](CO)NC(=O)[C@@H](NC(=O)[C@H](Cc1ccccc1)NC(=O)[C@@H](NC(=O)CNC(=O)[C@H](CCC(=O)O)NC(=O)[C@H](C)NC(=O)CCc1c[nH]cn1)[C@@H](C)O)[C@@H](C)O)C(C)C)C(=O)N[C@@H](CCC(=O)O)C(=O)N[C@@H](Cc1c[nH]c2ccccc12)C(=O)N[C@@H](CC(C)C)C(=O)N[C@H](C(=O)N[C@@H](CCCNC(=N)N)C(=O)NCC(=O)N[C@@H](CCCNC(=N)N)C(=O)N[C@@H](CCCCNC(=O)COCCOCCNC(=O)COCCOCCNC(=O)CC[C@H](NC(=O)[C@H]1CC[C@H](CNC(=O)CCCCCCCCCCCCCCCCCCC(=O)O)CC1)C(=O)O)C(=O)O)C(C)C [Example 10, N-epsilon37-[2-(2-{2-[2-(2-{2-[(S)-4-Carboxy-4-({trans-4-[(19-carboxy-nonadecanoylamino)methyl]cyclohexanecarbonyl}amino)butyrylamino]ethoxy}ethoxy)acetylamino]ethoxy}ethoxy)acetyl][DesaminoHis7,Glu22,Arg26,Glu30,Arg34,Lys37]GLP-1-(7-37)] (Desaminohistidyl-AEGTFTSDVSSYLEEQAAREFIEWLVRGRK([AEEA-AEEA-γGlu-Trx-C20 diacid])-OH)
Second: CCCCCCCCCCCCCCCCCC(=O)NCCOCCOCC(=O)NCCOCCOCC(=O)NCCOCCOCC(=O)NCCCC[C@H](NC(=O)[C@H](CCCNC(=N)N)NC(=O)CNC(=O)[C@H](CCCNC(=N)N)NC(=O)[C@@H](NC(=O)[C@H](CC(C)C)NC(=O)[C@H](Cc1c[nH]c2ccccc12)NC(=O)[C@H](C)NC(=O)[C@@H](NC(=O)[C@H](Cc1ccccc1)NC(=O)[C@H](CCC(=O)O)NC(=O)[C@H](CCCNC(=N)N)NC(=O)[C@H](C)NC(=O)[C@H](C)NC(=O)[C@H](CCC(N)=O)NC(=O)[C@H](CCC(=O)O)NC(=O)[C@H](CCC(=O)O)NC(=O)[C@H](CC(C)C)NC(=O)[C@H](Cc1ccc(O)cc1)NC(=O)[C@H](CO)NC(=O)[C@H](CO)NC(=O)[C@@H](NC(=O)[C@H](CC(=O)O)NC(=O)[C@H](CO)NC(=O)[C@@H](NC(=O)[C@H](Cc1ccccc1)NC(=O)[C@@H](NC(=O)CNC(=O)[C@H](CCC(=O)O)NC(=O)[C@H](C)NC(=O)CCc1c[nH]cn1)[C@@H](C)O)[C@@H](C)O)C(C)C)[C@@H](C)CC)C(C)C)C(N)=O [Example 19, N-epsilon37-(2-(2-(2-(2-(2-(2-(2-(2-(2-(Octadecanoylamino)ethoxy)ethoxy)acetylamino)ethoxy)ethoxy)acetylamino)ethoxy)ethoxy)acetyl)[desaminoHis7,Glu22,Arg26,Arg34,Lys37] GLP-1 (7-37)amide]
The EC50 of the first is 13-fold higher: 0.66 nM for the first, 0.05 nM for the second. The second is the more potent here.

`CCCCCCCCCCCCCCCCOCCOCCOCCOCCOCCOCCC(=O)NCCCC[C@H](NC(=O)[C@H](CCCNC(=N)N)NC(=O)CNC(=O)[C@H](CCCNC(=N)N)NC(=O)[C@@H](NC(=O)[C@H](CC(C)C)NC(=O)[C@H](Cc1c[nH]c2ccccc12)NC(=O)[C@H](C)NC(=O)[C@@H](NC(=O)[C@H](Cc1ccccc1)NC(=O)[C@H](CCC(=O)O)NC(=O)[C@H](CCCNC(=N)N)NC(=O)[C@H](C)NC(=O)[C@H](C)NC(=O)[C@H](CCC(N)=O)NC(=O)[C@H](CCC(=O)O)NC(=O)[C@H](CCC(=O)O)NC(=O)[C@H](CC(C)C)NC(=O)[C@H](Cc1ccc(O)cc1)NC(=O)[C@H](CO)NC(=O)[C@H](CO)NC(=O)[C@@H](NC(=O)[C@H](CC(=O)O)NC(=O)[C@H](CO)NC(=O)[C@@H](NC(=O)[C@H](Cc1ccccc1)NC(=O)[C@@H](NC(=O)CNC(=O)[C@H](CCC(=O)O)NC(=O)[C@H](C)NC(=O)CCc1c[nH]cn1)[C@@H](C)O)[C@@H](C)O)C(C)C)[C@@H](C)CC)C(C)C)C(N)=O` [Example 16, N-epsilon37 (3-((2-(2-(2-(2-(2-Hexadecyloxyethoxy)ethoxy)ethoxy)ethoxy)ethoxy))propionyl)[DesaminoHis7,Glu22,Arg26,Arg34,Lys37]GLP-1(7-37)-amide] gave an EC50 of 0.15 nM.

Target: human serum albumin (HSA) (Homo sapiens, UniProt P02768)
Test: Albumin binding affinity, competition scintillation proximity assay (SPA)
Details: not given

Chain of human serum albumin (HSA) (P02768 25-609): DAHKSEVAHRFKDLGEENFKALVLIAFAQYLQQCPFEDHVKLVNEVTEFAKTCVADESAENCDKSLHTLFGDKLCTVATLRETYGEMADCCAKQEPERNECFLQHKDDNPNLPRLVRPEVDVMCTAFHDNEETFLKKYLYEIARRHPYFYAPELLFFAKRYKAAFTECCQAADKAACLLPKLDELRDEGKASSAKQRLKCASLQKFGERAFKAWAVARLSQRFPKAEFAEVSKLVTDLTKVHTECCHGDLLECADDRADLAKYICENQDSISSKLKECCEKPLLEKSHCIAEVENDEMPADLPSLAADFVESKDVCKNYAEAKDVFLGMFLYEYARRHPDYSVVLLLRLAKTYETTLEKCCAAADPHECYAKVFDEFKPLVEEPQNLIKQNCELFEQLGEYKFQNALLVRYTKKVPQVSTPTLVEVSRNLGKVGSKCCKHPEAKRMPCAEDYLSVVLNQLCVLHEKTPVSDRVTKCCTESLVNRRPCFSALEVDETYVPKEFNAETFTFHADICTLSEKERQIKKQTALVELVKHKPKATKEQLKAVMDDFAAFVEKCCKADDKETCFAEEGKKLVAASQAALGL

First: CC[C@H](C)[C@H](NC(=O)[C@H](Cc1ccccc1)NC(=O)[C@H](CCC(=O)O)NC(=O)[C@H](CCCNC(=N)N)NC(=O)[C@H](C)NC(=O)[C@H](C)NC(=O)[C@H](CCC(N)=O)NC(=O)[C@H](CCC(=O)O)NC(=O)[C@H](CCC(=O)O)NC(=O)[C@H](CC(C)C)NC(=O)[C@H](Cc1ccc(O)cc1)NC(=O)[C@H](CO)NC(=O)[C@H](CO)NC(=O)[C@@H](NC(=O)[C@H](CC(=O)O)NC(=O)[C@H](CO)NC(=O)[C@@H](NC(=O)[C@H](Cc1ccccc1)NC(=O)[C@@H](NC(=O)CNC(=O)[C@H](CCC(=O)O)NC(=O)C(C)(C)NC(=O)[C@@H](N)Cc1c[nH]cn1)[C@@H](C)O)[C@@H](C)O)C(C)C)C(=O)N[C@@H](C)C(=O)N[C@@H](Cc1c[nH]c2ccccc12)C(=O)N[C@@H](CC(C)C)C(=O)N[C@H](C(=O)N[C@@H](CCCNC(=N)N)C(=O)NC(C)(C)C(=O)N[C@@H](CCCNC(=N)N)C(=O)N[C@@H](CCCCNC(=O)COCCOCCNC(=O)COCCOCCNC(=O)CC[C@H](NC(=O)CCCCCCCCCCCCCCCCC(=O)O)C(=O)O)C(=O)O)C(C)C [Example 33, N-epsilon37-[2-(2-{2-[2-(2-{2-[(S)-4-carboxy-4-(17-carboxy-heptadecanoylamino)-butyrylamino]-ethoxy}-ethoxy)-acetylamino]-ethoxy}-ethoxy)-acetyl]-[Aib8,Glu22, Arg26,Arg34, Aib35, Lys37]GLP-1-(7-37)] (H-H[Aib]EGTFTSDVSSYLEEQAAREFIAWLVR[Aib]RK([AEEA-AEEA-γGlu-C18 diacid])-OH)
Second: CC[C@H](C)[C@H](NC(=O)[C@H](Cc1ccccc1)NC(=O)[C@H](CCC(=O)O)NC(=O)[C@H](CCCNC(=N)N)NC(=O)[C@@H](NC(=O)[C@H](C)NC(=O)[C@H](CCC(N)=O)NC(=O)[C@H](CCC(=O)O)NC(=O)[C@H](CCC(=O)O)NC(=O)[C@H](CC(C)C)NC(=O)[C@H](Cc1ccc(O)cc1)NC(=O)[C@H](CO)NC(=O)[C@H](CO)NC(=O)[C@@H](NC(=O)[C@H](CC(=O)O)NC(=O)[C@H](CO)NC(=O)[C@@H](NC(=O)[C@H](Cc1ccccc1)NC(=O)[C@@H](NC(=O)CNC(=O)[C@H](CCC(=O)O)NC(=O)C(C)(C)NC(=O)[C@@H](N)Cc1c[nH]cn1)[C@@H](C)O)[C@@H](C)O)C(C)C)C(C)C)C(=O)N[C@@H](C)C(=O)N[C@@H](CCCCNC(=O)COCCOCCNC(=O)COCCOCCNC(=O)CC[C@H](NC(=O)CCCCCCCCCCCCCCCCC(=O)O)C(=O)O)C(=O)N[C@@H](CC(C)C)C(=O)N[C@H](C(=O)N[C@@H](CCCCN)C(=O)N[C@@H](CCCCN)C(=O)N[C@@H](CCCCN)C(N)=O)C(C)C [Example 36, N-epsilon31-[2-(2-{2-[2-(2-{2-[(S)-4-Carboxy-4-(17-carboxyheptadecanoylamino)butyrylamino]ethoxy}ethoxy)acetylamino]ethoxy}ethoxy)acetyl][Aib8,Glu22,Val25,Arg26,Lys31,Lys35,Lys36]GLP-1-(7-36) amide] (H-H[Aib]EGTFTSDVSSYLEEQAVREFIAK([AEEA-AEEA-γGlu-C18 diacid])LVKKK-NH2)
The EC50 of the first is lower: 100 to 150 nM for the first, 400 to 800 nM for the second. The first is the more potent here.

`CC[C@H](C)[C@H](NC(=O)[C@H](Cc1ccccc1)NC(=O)[C@H](CCC(=O)O)NC(=O)[C@H](CCCNC(=N)N)NC(=O)[C@@H](NC(=O)[C@H](C)NC(=O)[C@H](CCC(N)=O)NC(=O)[C@H](CCC(=O)O)NC(=O)[C@H](CCC(=O)O)NC(=O)[C@H](CC(C)C)NC(=O)[C@H](Cc1ccc(O)cc1)NC(=O)[C@H](CO)NC(=O)[C@H](CO)NC(=O)[C@@H](NC(=O)[C@H](CC(=O)O)NC(=O)[C@H](CO)NC(=O)[C@@H](NC(=O)[C@H](Cc1ccccc1)NC(=O)[C@@H](NC(=O)CNC(=O)[C@H](CCC(=O)O)NC(=O)C(C)(C)NC(=O)[C@@H](N)Cc1c[nH]cn1)[C@@H](C)O)[C@@H](C)O)C(C)C)C(C)C)C(=O)N[C@@H](C)C(=O)N[C@@H](CCCCNC(=O)COCCOCCNC(=O)COCCOCCNC(=O)CC[C@H](NC(=O)CCCCCCCCCCCCCCCCC(=O)O)C(=O)O)C(=O)N[C@@H](CC(C)C)C(=O)N[C@H](C(=O)N[C@@H](CNC(=O)CN(CC(=O)O)CC(=O)O)C(N)=O)C(C)C` [Example 37, N-epsilon31-{2-(2-{2-[2-(2-{2-[4-Carboxy-4-(17-carboxy-heptadecanoylamino)butyrylamino]ethoxy}ethoxy)acetylamino]ethoxy}ethoxy)acetyl}-N-beta34-(2-(bis-carboxymethylamino)acetyl)[Aib8,Glu22,Val25,Arg26,Lys31, Dap34] GLP-1(7-34) amide] (H-H[Aib]EGTFTSDVSSYLEEQAVREFIAK([AEEA-AEEA-γGlu-C18 diacid])LV[Dap](NTA)-NH2) was tested, and the EC50 was 150 to 200 nM.
